ChEMBL document CHEMBL1151394, “Cytotoxic agent from Senecio anonymus wood” (1982)
Values after ≈ are worked out from the molar mass of the structure shown.

Tests used:
KB = test: Cytotoxicity against human KB cells; type: functional; settings: read-out: ED50 (the source's name)
P388 = test: In vivo cytotoxicity against mouse P388 cells; type: functional

Compound | EC50 (KB) [µg/mL] | T/C (P388) [%]
COC(=O)CC1(O)C=CC(=O)C=C1 [JACARANONE] | 2.1 (≈ 11.5 µM) | 165
CCOC(=O)CC1(O)C=CC(=O)C=C1 | 3.3 (≈ 16.8 µM) | –
